# In the supplement of paper PMC13380429:
# ± gives the standard deviation of the averaged measurements.
# How the values were obtained:
# Conditions in all cases: 72 h
# Caco-2 [1] = test: cell viability relative to DMSO; higher = less toxic
# Calu-3 [2] = test: as above
# HepG2 [3] = test: as above
# U2OS [4] = test: as above
# Vero E6 [5] = test: as above
# Caco-2 [6] = test: relative viability EC50 (midpoint between 100% and the lowest measured viability); higher = less toxic
# Calu-3 [7] = test: as above
# HepG2 [8] = test: as above
# U2OS [9] = test: as above
# Vero E6 [10] = test: as above
# Caco-2 [11] = test: drug sensitivity score (DSS) for viability; higher = more toxic; extreme values may be limits of the assay
# Calu-3 [12] = test: as above
# HepG2 [13] = test: as above
# U2OS [14] = test: as above
# Vero E6 [15] = test: as above
Structure (SMILES),cell viability (Caco-2 [1]; 1 nM) [%],cell viability (Caco-2 [1]; 10 nM) [%],cell viability (Caco-2 [1]; 100 nM) [%],cell viability (Caco-2 [1]; 1000 nM) [%],cell viability (Caco-2 [1]; 10000 nM) [%],cell viability (Calu-3 [2]; 1 nM) [%],cell viability (Calu-3 [2]; 10 nM) [%],cell viability (Calu-3 [2]; 100 nM) [%],cell viability (Calu-3 [2]; 1000 nM) [%],cell viability (Calu-3 [2]; 10000 nM) [%],cell viability (HepG2 [3]; 1 nM) [%],cell viability (HepG2 [3]; 10 nM) [%],cell viability (HepG2 [3]; 100 nM) [%],cell viability (HepG2 [3]; 1000 nM) [%],cell viability (HepG2 [3]; 10000 nM) [%],cell viability (U2OS [4]; 1 nM) [%],cell viability (U2OS [4]; 10 nM) [%],cell viability (U2OS [4]; 100 nM) [%],cell viability (U2OS [4]; 1000 nM) [%],cell viability (U2OS [4]; 10000 nM) [%],cell viability (Vero E6 [5]; 1 nM) [%],cell viability (Vero E6 [5]; 10 nM) [%],cell viability (Vero E6 [5]; 100 nM) [%],cell viability (Vero E6 [5]; 1000 nM) [%],cell viability (Vero E6 [5]; 10000 nM) [%],relative viability EC50 (Caco-2 [6]) [µM],relative viability EC50 (Calu-3 [7]) [µM],relative viability EC50 (HepG2 [8]) [µM],relative viability EC50 (U2OS [9]) [µM],relative viability EC50 (Vero E6 [10]) [µM],drug sensitivity score (Caco-2 [11]),drug sensitivity score (Calu-3 [12]),drug sensitivity score (HepG2 [13]),drug sensitivity score (U2OS [14]),drug sensitivity score (Vero E6 [15])
O=C(O)[C@H](Cc1ccc(Nc2nccc3ccncc23)cc1)NC1=C(Br)C(=O)C12CCCCC2 [CT-7758],97.5,100,88.9,105,102,108,105,95.3,89.6,104,99.3,95.4,105,101,101,101,104,96.6,98.6,96.5,97.6,104,93.3,98.2,93.4,> 10,> 10,> 10,> 10,> 10,0,0,0,0,0
CC(=O)OCC(=O)[C@@]1(O)CC[C@H]2[C@@H]3CCC4=CC(=O)CC[C@]4(C)[C@@]3(F)[C@@H](O)C[C@@]21C [FLUDROCORTISONE ACETATE],102,102,99.5,92.8,101,97.7,94.4,93,85.1,104,104,95.9,104,87.5,95.3,98.1,101,95.8,94.7,93.1,97.7,99.8,96.5,96.5,97.7,> 10,> 10,> 10,> 10,> 10,0,0,0.6,0,0
COc1ccc(COc2ccc(Cc3cnc(N)nc3N)cc2OC)cc1 [GW-2580],98.2,97.6,95.7,102,91.2,110,102,97.2,102,99.7,113,108,108,99.5,108,99.2,99.3,94.3,103,92.2,95.3,97.9,100,98.3,96,> 10,> 10,> 10,> 10,> 10,0,0,0,0,0
N[C@H]1CCN(O)C1=O [HA-966-(S)-(-)],103 ± 1.2,86.4 ± 7.8,106 ± 5.9,96 ± 3.5,102 ± 5.2,104 ± 4.8,95.8 ± 4.6,99.6 ± 2.1,94.7 ± 7.3,97.6 ± 0.71,93.2,107,100,104,106,97.6 ± 2.7,96.8 ± 2,98.5 ± 3.2,96.9 ± 0.71,97.2 ± 3.2,96.8 ± 9.3,95.3,93.35 ± 0.35,97.6 ± 3.4,102 ± 4.7,> 10,> 10,> 10,> 10,> 10,0,0,0,0,0
NCCCCCNCC12CC3CC(CC(C3)C1)C2 [IEM1754],104,97.4,101,104,102,108,106,91,97.8,82.1,106,89.3,98.1,97.8,97.9,98.6,106,100,100,99,98.6,98.6,94.7,97.3,102,> 10,> 10,> 10,> 10,> 10,0,0.7,0,0,0
CC1(C)CN2C(CS/C(=N\C3CCCCC3)NC3CCCCC3)=CSC2=N1 [IT1t],91.6,87.6,99.5,94.8,82,96.4,116,100,89.7,75.4,96.7,102,96.7,102,88.8,97.1,95.8,102,97.5,88.8,94.5,95.7,92.1,99.4,96.9,> 10,> 10,> 10,> 10,> 10,0,2.2,0,0.1,0
COc1ccc2c3c([nH]c2c1)[C@H](CC(C)C)N1C(=O)[C@H](CCC(=O)OC(C)(C)C)NC(=O)[C@@H]1C3 [Ko143],95.7,99.6,91.8,91.4,93,89.8,100,97.7,98.6,97.9,101,86.3,92.5,85.6,97.9,98.7,101,98.1,100,94.1,99.3,96.7,101,93,97.7,> 10,> 10,> 10,> 10,> 10,0,0,0,0,0
